# According to patent publication US20170000133A1, “BENZOXABOROLE FUNGICIDES” (SYNGENTA PARTICIPATIONS AG, priority 2013, published 2017):
# Test system: Monographella nivalis (Microdochium nivale)
# Experiment: Monographella nivalis (Microdochium nivale) / liquid culture (foot rot cereals)
# Type: cell-based
# Conditions: PDB potato dextrose broth, 24° C., 4-5 days after application, read-out: disease control (inhibition of growth determined photometrically)
row,Compound,inhibition at 200 ppm [%]
1,C#CC1(NC(=O)c2cc3c(cc2F)COB3O)CCCCC1 [Compound 90],≥ 80
2,CC(=O)c1sc(NC(=O)c2cc3c(cc2F)COB3O)nc1C [Compound 181],≥ 80
3,COC(=O)c1sccc1NC(=O)c1cc2c(cc1F)COB2O [Compound 186],≥ 80
4,Cc1ccc(-c2csc(NC(=O)c3cc4c(cc3F)COB4O)n2)cc1 [Compound 188],≥ 80

# Test system: Plasmopara viticola
# Experiment: whole plant or invertebrate
# Type: in vivo
# Conditions: foliar, read-out: disease control
row,Compound,pest or weed control at 200 ppm [%]
1,O=C(NCCSCc1ccccc1)c1cc2c(cc1F)COB2O [Compound 84],≥ 80
2,O=C(NCc1cccc(Cl)c1)c1cc2c(cc1F)COB2O [Compound 119],≥ 80
3,O=C(NCc1ccc2c(c1)OCCO2)c1cc2c(cc1F)COB2O [Compound 121],≥ 80
4,COc1ccc(CNC(=O)c2cc3c(cc2F)COB3O)cc1 [Compound 124],≥ 80
5,O=C(Nc1cc(-c2ccccc2)[nH]n1)c1cc2c(cc1F)COB2O [Compound 182],≥ 80
6,COC(=O)c1sccc1NC(=O)c1cc2c(cc1F)COB2O [Compound 186],≥ 80
7,Cc1ccc(-c2csc(NC(=O)c3cc4c(cc3F)COB4O)n2)cc1 [Compound 188],≥ 80

# Test system: Pythium ultimum
# Experiment: Pythium ultimum / liquid culture (seedling damping off)
# Type: cell-based
# Conditions: Globisporangium ultimum; 200 ppm; potato dextrose broth, 24° C., 2-3 days after application; read-out: disease control (inhibition of growth determined photometrically)
row,Compound,inhibition at 200 ppm [%]
1,O=C(NCCSCc1ccccc1)c1cc2c(cc1Cl)COB2O [Compound 59],≥ 80
2,O=C(NCCSCc1ccccc1)c1cc2c(cc1F)COB2O [Compound 84],≥ 80
3,O=C(NCc1ccc2c(c1)OCCO2)c1cc2c(cc1Cl)COB2O [Compound 87],≥ 80
4,C#CC1(NC(=O)c2cc3c(cc2F)COB3O)CCCCC1 [Compound 90],≥ 80
5,O=C(NCC1CCCO1)c1cc2c(cc1F)COB2O (stereo not drawn) [Compound 94],≥ 80
6,O=C(NCc1cccc(Cl)c1)c1cc2c(cc1F)COB2O [Compound 119],≥ 80
7,O=C(NCc1ccc2c(c1)OCCO2)c1cc2c(cc1F)COB2O [Compound 121],≥ 80
8,COc1ccc(CNC(=O)c2cc3c(cc2F)COB3O)cc1 [Compound 124],≥ 80
9,O=C(NCc1ccccc1OC(F)(F)F)c1cc2c(cc1F)COB2O [Compound 128],≥ 80
10,O=C(NCc1ccc(Cl)nc1)c1cc2c(cc1F)COB2O [Compound 138],≥ 80
11,COC(=O)c1cc2cc(NC(=O)c3cc4c(cc3F)COB4O)ccc2s1 [Compound 163],≥ 80
12,CC(=O)c1sc(NC(=O)c2cc3c(cc2F)COB3O)nc1C [Compound 181],≥ 80
13,O=C(Nc1cc(-c2ccccc2)[nH]n1)c1cc2c(cc1F)COB2O [Compound 182],≥ 80
14,COC(=O)c1sccc1NC(=O)c1cc2c(cc1F)COB2O [Compound 186],≥ 80
15,CC(C#N)OC(=O)c1cc2c(cc1Cl)COB2O (stereo not drawn) [Compound 193],≥ 80
16,N#CCCOC(=O)c1cc2c(cc1Cl)COB2O [Compound 231],≥ 80

# Test system: not given
# Experiment: not given
# Conditions: not given
row,Compound,melting point [°C]
1,COC(=O)c1sccc1NC(=O)c1cc2c(cc1F)COB2O [Compound 186],302 to 304

# Test system: Phytophthora infestans
# Experiment: whole plant or invertebrate
# Type: in vivo
# Conditions: in Solanum lycopersicum, foliar, read-out: disease control
row,Compound,pest or weed control at 200 ppm [%]
1,O=C(NCCSCc1ccccc1)c1cc2c(cc1Cl)COB2O [Compound 59],≥ 80
2,O=C(NCCSCc1ccccc1)c1cc2c(cc1F)COB2O [Compound 84],≥ 80
3,O=C(NCc1ccc2c(c1)OCCO2)c1cc2c(cc1Cl)COB2O [Compound 87],≥ 80
4,C#CC1(NC(=O)c2cc3c(cc2F)COB3O)CCCCC1 [Compound 90],≥ 80
5,O=C(NCC1CCCO1)c1cc2c(cc1F)COB2O (stereo not drawn) [Compound 94],≥ 80
6,O=C(NCc1cccc(Cl)c1)c1cc2c(cc1F)COB2O [Compound 119],≥ 80
7,O=C(NCc1ccc2c(c1)OCCO2)c1cc2c(cc1F)COB2O [Compound 121],≥ 80
8,COc1ccc(CNC(=O)c2cc3c(cc2F)COB3O)cc1 [Compound 124],≥ 80
9,O=C(NCc1ccccc1OC(F)(F)F)c1cc2c(cc1F)COB2O [Compound 128],≥ 80
10,O=C(NCc1ccc(Cl)nc1)c1cc2c(cc1F)COB2O [Compound 138],≥ 80
11,COC(=O)c1cc2cc(NC(=O)c3cc4c(cc3F)COB4O)ccc2s1 [Compound 163],≥ 80
12,CC(=O)c1sc(NC(=O)c2cc3c(cc2F)COB3O)nc1C [Compound 181],≥ 80
13,O=C(Nc1cc(-c2ccccc2)[nH]n1)c1cc2c(cc1F)COB2O [Compound 182],≥ 80
14,COC(=O)c1sccc1NC(=O)c1cc2c(cc1F)COB2O [Compound 186],≥ 80
15,CC(C#N)OC(=O)c1cc2c(cc1Cl)COB2O (stereo not drawn) [Compound 193],≥ 80
16,N#CCCOC(=O)c1cc2c(cc1Cl)COB2O [Compound 231],≥ 80

# Test system: Puccinia recondita f. sp. tritici
# Experiment: Puccinia recondita f. sp. tritici / wheat / leaf disc preventative (brown rust)
# Type: in vivo
# Conditions: foliar, wheat leaf segments cv Kanzler, inoculated 1 day after application, assessed 7-9 days after application, read-out: disease control
# Description: 3. Puccinia recondita f. sp. tritici/Wheat/Leaf Disc Preventative (Brown Rust): Wheat leaf segments cultivated variety (cv) Kanzler were placed on agar in 24-well plates and sprayed with formulated test compound diluted in water at an application rate of 200 ppm. The leaf disks were inoculated with a spore suspension of the fungus 1 day after application.
row,Compound,pest or weed control at 200 ppm [%]
1,Cc1ccc(-c2csc(NC(=O)c3cc4c(cc3F)COB4O)n2)cc1 [Compound 188],≥ 80
